In one series the target is T1, AnKir1 (Anopheles gambiae, UniProt A0A075M2J8).
T1 sequence (A0A075M2J8 1-555): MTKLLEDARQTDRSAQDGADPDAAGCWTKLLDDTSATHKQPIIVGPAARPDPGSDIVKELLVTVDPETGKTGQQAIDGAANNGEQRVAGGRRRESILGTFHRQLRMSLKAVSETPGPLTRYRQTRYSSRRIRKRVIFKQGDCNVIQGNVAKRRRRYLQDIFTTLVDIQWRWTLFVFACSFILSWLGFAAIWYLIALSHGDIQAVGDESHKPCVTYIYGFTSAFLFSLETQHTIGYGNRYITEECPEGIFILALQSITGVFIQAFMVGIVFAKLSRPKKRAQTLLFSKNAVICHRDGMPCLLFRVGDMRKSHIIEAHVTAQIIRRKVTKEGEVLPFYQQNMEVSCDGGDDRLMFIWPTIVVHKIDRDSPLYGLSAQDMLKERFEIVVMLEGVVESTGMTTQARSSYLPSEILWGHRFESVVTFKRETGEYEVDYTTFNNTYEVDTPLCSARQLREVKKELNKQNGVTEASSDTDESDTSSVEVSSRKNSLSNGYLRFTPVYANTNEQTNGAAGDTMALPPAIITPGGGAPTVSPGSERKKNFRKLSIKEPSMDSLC
As to the kind of experiment: Tl+ flux assay in T-REx-HEK293 cells expressing AnKir1. Format: cell-based. How it is done: Tl^+ flux assays were performed essentially as described previously. Briefly, stably transfected T-Rex-HEK-293 cells expressing AnKir1 channels were cultured overnight in 384-well plates (20,000 cells/20 μL/well black-walled, clear-bottomed BD PureCoat amine-coated plates (BD, Bedford, MA) with a plating media containing DMEM, 10% dialyzed FBS and 1 μg/mL tetracycline. Approximately twenty-four hours after cell plating, the cell culture medium was replaced with a dye-loading solution containing assay buffer (Hanks Balanced Salt Solution with 20 mM HEPES, pH 7.3), 0.01% (w/v) Pluronic F-127 (Life Technologies, Carlsbad, CA), and 1.2 μM of the thallium-sensitive dye Thallos-AM (TEFlabs, Austin, TX). Following 1 hr incubation at room temperature, the dye-loading solution was washed from the plates and replaced with 20 μL/well of assay buffer.
Tl+ flux assay development
Tl+ flux assays were performed essentiall y as described previousl y (1). Briefl y, stabl y transfect ed T-Rex -HEK- 293- AnKir1 cells were cultured overnight in 384-well plates in media containing DMEM, 10% dial yz ed FBS and 1μg/ m L tetrac ycline to induce channel expression
(Fig. S1A). The next day, the cell culture medium was replaced with a dye-loading solution containing assay buffer (Hanks Balanced Salt Solution with 20 mM HEPES, pH 7.3), 0.01% (w/v) Pluronic F-127 (Li fe Technologies, Carlsbad, CA), and 1.2 μM of the thallium-sensitive dye Thallos-AM (TEFl abs, Austin, TX). Following 1 hr incubation at room temperature, the d ye-loading solution was washed from the plates and replaced with 20 μ L/well of assa y buffer. The plates were transferred t o a Ham amatsu Functional Drug Screening System 6000 (FDSS6000; Hamamatsu, Tokyo, J apan) where 20 μ L/well of test compounds in assay buffer (as prepared below) were added and allowed to incubate with the cells for 20 min. After the incubation period, a baseline recordi ng was collected at 1 Hz for 10 s (excitation 470 ± 20 nm, emission 540 ± 30 nm) followed by a t hallium stimulus buffer addition (10 μL/well) and data collection for an additional 4 min. The Tl + stimulus buffer contains in (mM) 125 NaHCO3, 1.8 CaSO4, 1 MgSO4, 5 glucose, 12 Tl2SO4, 10 HEPES, pH 7.4. For Tl + flux assays on Kir2.x, Kir4.1 and Kir6.2/SUR1 ex pressing cells, the Tl+ stimulus buffer contained 1.8 mM Tl 2SO4. To ensure the small-molecule vehicle DMSO had no direct effect on An Ki r1-dependent Tl+ flux, the assa y’s tolerance to different doses of DMSO was evaluated (Fig. S1B). The robustness and reproducibility of the assay was determined by comparing Tl+ flux through tetracycline-induced and tetracycline-uninduced cells (Fig. S1C). The Z’ value was calculated as described previously (1 ), using the […]
Z’ = 1- (3SD p + 3SD n)/ |meanp + meann | where SD is standard deviation, p and n are control and uninduced flux values respectivel y.
To compare the effect of DMSO on An Kir1-mediated Tl+ flux, a one-way ANOVA was performed with a Tuke y’s multiple comparison test. Prism software (GraphPad Software) was used to generate CRC from Tl+ fl ux ..Half-inhibition concentration (IC50) values were calculated from fits using a four parameter logistic equation.
High-throughput screeni ng
The test compounds were transferred to daughter pol yprop ylene 384-well plates (G reiner Bio-One, Monroe, NC) using an Echo555 liquid handler (Labcyte, Sunnyvale, CA), and then diluted into assay buffer to generat e a 2X stock in 0.6% DMSO (0.3% final). For Tl+ flux assays on Kir6.2/SUR1 expressing cells, test compounds were diluted in assay buffer containing diazoxide (250 μM final) to induce channel activation. Concentration- response curves (CRCs) were gener ated b y screening compounds at 3-fold dilution series (1 nM - 30 μM).
Tl+ flux data were anal yzed as previousl y d escri bed (2, 3) using a combination of Excel (Microsoft Corp, Redmond, WA) with XLfit add-in (IDBS, Guildford, Surre y, UK), Ori ginPro […]

The next series has as its system An. gambiae G3 strain. The experiment in a line: Topical toxicity bioassay, An. gambiae G3 strain adult females. In kind it is in vivo, Anopheles gambiae. As to conditions: adult female An. gambiae; for ED50, G3 Strain: 24 h, (95% confidence limits), synergists PBO/DEF applied 4 h prior where labelled. As for the experimental part:
Topical toxicity bioassays were performed based on the method of Pridgeon et al.[50]. Briefly, non-blood fed adult female mosquitoes were chilled on ice for 1–3 minutes, during which 200 nL of chemical (dissolved in 95% ethanol) was applied onto the abdomen of the insect using a handheld Hamilton® micro-applicator. For synergism studies, 500 ng of the synergist (i.e., piperonyl butoxide [PBO] or S,S,S-tributyl phosphorotrithioate [DEF]) per milligram of mosquito (ng/mg) was applied to the abdomen 4 h prior to application of the insecticide. […] The three ED50 values obtained were then averaged and presented as a mean. An ethanol-only treatment was included in each experiment as a negative control. Treated mosquitoes were transferred to small cages with access to 10% sucrose and held under rearing conditions for 24 h. Mortality was recorded at 24 h.

Setting [1] is: Tl+ flux, Tables S2/S3 and supplemental text, read-out: AnKir1 IC50.
The mark [2] stands for this setting: Tl+ flux assay, read-out: AnKir1 IC50 (Tl+ flux).

pIC50: −log10 of the molar value. Entries after “also recorded” stand apart in the source; their conditions may differ. Read-outs that look alike come from different tables or passages of the source.

Results on seven compounds are retold here after article PMC5111108, “An insecticide resistance-breaking mosquitocide targeting inward rectifier potassium channels in vectors of Zika virus and malaria” (Scientific Reports, 2016).

With `O=C1CCCc2c1ccn2CC(=O)N1CCCc2ccccc21` [Compound 4], on AnKir1 (setting [1]), the pIC50 (in general, −log10 of the IC50, conventionally taken in molar units) was 4.92.

Consider `O=C(Cn1nc(C(F)(F)F)c2c1CCCC2)N1CCCC2CCCCC21` (centres unmarked) [Compound 9], for which the pIC50 at AnKir1 (setting [1]) was 5.17.

Consider `O=C(Cn1nc(C(F)(F)F)c2c1CCCC2)N1CCCC(c2ccccc2)C1` (centres unmarked) [Compound 12], for which the pIC50 at AnKir1 (setting [1]) was 5.25.

Consider `CC1CC(C)CN(C(=O)Cn2nc(C(F)(F)F)c3c2CCCC3)C1` (centres unmarked) [Compound 13], for which, at AnKir1 (setting [1]), the negative logarithm of the IC50 (pIC50) is 5.35.

In the case of `O=C(Cn1nc(C(F)(F)F)c2c1CCCC2)N1CCCc2ccccc21` [VU041, 1-(3,4-dihydroquinolin-1(2H)-yl)-2-(3-(trifluoromethyl)-4,5,6,7-tetrahydro-1H-indazol-1-yl)ethan-1-one], on AnKir1 (Tl+ flux CRC), the “Hill-coefficient (Tl+ flux, AnKir1)” value came out at 1.1. Moreover, the negative logarithm of the IC50 (pIC50) on AnKir1 (setting [2]) is 5.60. At AnKir1 (setting [1]), the pIC50 is 5.64. Moreover, in the series with An. gambiae G3 strain, the “ED50, G3 Strain” value is 1.8 (0.9–3.1) A μg/mg and the ED30 is reported as 1 μg/mg of mosquito.

Turning to `O=C(Cn1ncc2c1CCOC2)N1CCCc2ccccc21` [VU730], the negative-log IC50 (pIC50) on AnKir1 (setting [2]) was 5.62. Besides, the “ED50, G3 Strain” value with An. gambiae G3 strain was 2.4 (2.1–2.9) A μg/mg.

In the case of `O=C(Cn1nc(C(F)(F)F)c2c1CCCC2)NC1CCC1` [VU937], the “AnKir1 IC50” value on AnKir1 (Tl+ flux, Tables S2/S3 and supplemental text, listed as 18) is “not tolerated; also recorded: inactive”. Besides, the inhibition (in general, how much of the control response was suppressed) at 30 µM at AnKir1 (at 30 μM, read-out: inhibition of AnKir1-mediated Tl+ flux) was less than 50%. Also, in the series on An. gambiae G3 strain, the “ED50, G3 Strain” value was greater than 10 µg/mg.
